Here are results for three compounds from ChEMBL document CHEMBL3232996, “Synthesis and biological evaluation of novel (123)I-labeled 4-(4-iodophenyl)butanoyl-L-prolyl-(2S)-pyrrolidines for imaging prolyl oligopeptidase in vivo” (Eur J Med Chem, 2014).

In assay [1] the target is Prolyl endopeptidase (Sus scrofa, UniProt P23687). In words: Inhibition of porcine prolyl oligopeptidase using Z-Gly-Pro-AMC as substrate after 60 mins by double-reciprocal plot analysis. As to conditions: read-out: Ki(app).
Chain of Prolyl endopeptidase (Sus scrofa, UniProt P23687) (P23687 whole entry): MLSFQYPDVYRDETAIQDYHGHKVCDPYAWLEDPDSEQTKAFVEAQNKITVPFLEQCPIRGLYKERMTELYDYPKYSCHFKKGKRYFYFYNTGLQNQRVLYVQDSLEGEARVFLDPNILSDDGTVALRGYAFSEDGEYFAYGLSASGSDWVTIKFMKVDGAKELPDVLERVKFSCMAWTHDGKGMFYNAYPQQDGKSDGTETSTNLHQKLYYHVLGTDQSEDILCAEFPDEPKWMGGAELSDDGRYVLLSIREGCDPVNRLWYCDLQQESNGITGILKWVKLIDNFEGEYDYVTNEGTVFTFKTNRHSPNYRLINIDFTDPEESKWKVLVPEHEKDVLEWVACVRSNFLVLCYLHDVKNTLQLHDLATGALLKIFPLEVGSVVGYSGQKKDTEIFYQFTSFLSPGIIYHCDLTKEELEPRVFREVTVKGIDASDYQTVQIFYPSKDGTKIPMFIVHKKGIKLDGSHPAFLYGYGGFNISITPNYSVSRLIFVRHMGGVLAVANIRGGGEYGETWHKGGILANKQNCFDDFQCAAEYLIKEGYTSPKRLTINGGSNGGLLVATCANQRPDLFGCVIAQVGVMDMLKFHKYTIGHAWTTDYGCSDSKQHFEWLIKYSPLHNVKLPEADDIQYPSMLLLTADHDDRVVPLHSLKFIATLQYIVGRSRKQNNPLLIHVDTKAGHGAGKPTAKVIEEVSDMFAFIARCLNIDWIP
Assay [2] has as its target Prolyl endopeptidase (Mus musculus, UniProt Q9QUR6). The assay is described as follows: Competitive inhibition of mouse brain prolyl oligopeptidase. The class given is tissue-based.

Chain of Prolyl endopeptidase (Mus musculus, UniProt Q9QUR6) (Q9QUR6 whole entry): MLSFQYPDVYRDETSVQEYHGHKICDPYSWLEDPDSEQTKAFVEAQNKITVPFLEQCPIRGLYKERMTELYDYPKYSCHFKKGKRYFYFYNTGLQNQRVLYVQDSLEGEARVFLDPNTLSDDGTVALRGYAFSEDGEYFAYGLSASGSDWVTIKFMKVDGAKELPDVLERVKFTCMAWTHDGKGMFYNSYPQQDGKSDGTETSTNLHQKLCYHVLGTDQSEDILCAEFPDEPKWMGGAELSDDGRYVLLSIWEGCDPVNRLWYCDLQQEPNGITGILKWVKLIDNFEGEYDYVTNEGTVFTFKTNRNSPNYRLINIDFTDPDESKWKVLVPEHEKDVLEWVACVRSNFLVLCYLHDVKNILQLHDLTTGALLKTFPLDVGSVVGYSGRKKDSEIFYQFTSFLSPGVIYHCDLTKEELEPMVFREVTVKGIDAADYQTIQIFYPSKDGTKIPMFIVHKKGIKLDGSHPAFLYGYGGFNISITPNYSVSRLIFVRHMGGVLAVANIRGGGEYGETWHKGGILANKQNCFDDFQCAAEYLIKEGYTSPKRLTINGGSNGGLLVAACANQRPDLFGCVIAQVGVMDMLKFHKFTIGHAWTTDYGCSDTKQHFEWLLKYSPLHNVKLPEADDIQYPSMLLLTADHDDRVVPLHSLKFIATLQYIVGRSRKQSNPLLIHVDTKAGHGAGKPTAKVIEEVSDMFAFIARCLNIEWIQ

With `O=C([C@@H]1CCCN1C(=O)CCCc1ccc(I)cc1)N1CCCC1`, the Ki at Prolyl endopeptidase [1] was 22 nM. `[11CH3]Nc1ccc(CCCC(=O)N2CCC[C@H]2C(=O)N2CCCC2)cc1`: the IC50 on Prolyl endopeptidase [2] was found to be 3.1 nM. Turning to `N#C[C@@H]1CCCN1C(=O)[C@@H]1CCCN1C(=O)CCCc1ccc(I)cc1`, at Prolyl endopeptidase [1], the Ki was 4.2 nM.
